Among the data in ChEMBL document CHEMBL2040814, “Synthesis and biological activity of substituted 2,4-diaminopyrimidines that inhibit Bacillus anthracis” (2012) are MIC values, retold here.

In the experiment the test system is Bacillus anthracis. As to the kind of experiment: Antibacterial activity against Bacillus anthracis Sterne after 16 hrs by alamar blue broth microdilution technique. The experiment is classed as functional. (Resazurin is reduced to fluorescent resorufin, in cell work by metabolically active cells.)

The structures appear in SMILES notation. In brackets after ≈: the same amount, converted by molar mass.

In the case of `CCCC1c2ccccc2C=NN1C(=O)/C=C/c1cc(Cc2cnc(N)nc2N)cc(OC)c1OC` (racemic), the minimal inhibitory concentration (MIC) worked out at 1 µg/mL (≈ 2.06 µM).

As for `COc1cc(Cc2cnc(N)nc2N)cc(/C=C/C(=O)N2N=Cc3ccccc3C2C(C)C)c1OC` (racemic), the lowest concentration to inhibit growth (MIC) was 1 µg/mL (≈ 2.06 µM). To `COc1cc(Cc2cnc(N)nc2N)cc(/C=C/C(=O)N2N=Cc3ccccc3C2CCC(F)(F)F)c1OC` (racemic) belongs 1 µg/mL (≈ 1.85 µM); to `COc1cc(Cc2cnc(N)nc2N)cc(/C=C/C(=O)N2N=Cc3ccccc3C2CC(C)C)c1OC` (racemic), 1 µg/mL (≈ 2 µM); to `CCC(CC)C1c2ccccc2C=NN1C(=O)/C=C/c1cc(Cc2cnc(N)nc2N)cc(OC)c1OC` (racemic), 4 µg/mL (≈ 7.77 µM). Then `COc1cc(Cc2cnc(N)nc2N)cc(/C=C/C(=O)N2N=Cc3ccccc3C2c2ccccc2C)c1OC` (racemic), with 8 µg/mL (≈ 15 µM); and `COc1cc(Cc2cnc(N)nc2N)cc(/C=C/C(=O)N2N=Cc3ccccc3C2c2cc(C)cc(C)c2)c1OC` (racemic), with 4 µg/mL (≈ 7.29 µM).

`COc1cc(Cc2cnc(N)nc2N)cc(/C=C/C(=O)N2N=Cc3ccccc3C2c2cccc(F)c2)c1OC` (racemic) displayed an MIC of 2 µg/mL (≈ 3.71 µM). To `COc1cc(Cc2cnc(N)nc2N)cc(/C=C/C(=O)N2N=Cc3ccccc3C2c2ccc(F)cc2)c1OC` (racemic) belongs 1 µg/mL (≈ 1.86 µM); to `COc1cc(Cc2cnc(N)nc2N)cc(/C=C/C(=O)N2N=Cc3ccccc3C2Cc2ccccc2)c1OC` (racemic), 8 µg/mL (≈ 15 µM). As to `COc1cc(Cc2cnc(N)nc2N)cc(/C=C/C(=O)N2N=Cc3ccccc3C2Cc2ccc(C)cc2)c1OC` (racemic), the MIC was found to be 4 µg/mL (≈ 7.29 µM). Then `COc1ccc(CC2c3ccccc3C=NN2C(=O)/C=C/c2cc(Cc3cnc(N)nc3N)cc(OC)c2OC)cc1` (racemic), with 8 µg/mL (≈ 14.2 µM).

For `COc1cc(Cc2cnc(N)nc2N)cc(/C=C/C(=O)N2N=Cc3ccccc3C2Cc2ccc(OC(F)(F)F)cc2)c1OC` (racemic), the MIC amounted to 4 µg/mL (≈ 6.47 µM). Then `COc1cc(Cc2cnc(N)nc2N)cc(/C=C/C(=O)N2N=Cc3ccccc3C2c2ccc(C)cc2)c1OC` (racemic), with 1 µg/mL (≈ 1.87 µM); and `COc1cc(Cc2cnc(N)nc2N)cc(/C=C/C(=O)N2N=Cc3ccccc3C2C2CCCCC2)c1OC` (racemic), with 1 µg/mL (≈ 1.9 µM).

Turning to `COc1cc(Cc2cnc(N)nc2N)cc(/C=C/C(=O)N2N=Cc3ccccc3C2c2ccccc2)c1OC` (racemic), the MIC was determined as 0.375 µg/mL (≈ 0.72 µM).

Broadly, the MIC is the lowest concentration found to suppress growth.
